# Data from patent publication US5795887A, “Method of inducing cholecystokinin agonist activity using 1,4- Benzodiazepine compounds” (Glaxo Wellcome Inc., priority 1994, dated 1998).
# Ends that are not written are not given here.
# B1: CCK: a peptide found in the gastrointestinal tract and the central nervous system (peptide, UniProt P06307 21-115, looked up)
# Cholecystokinin: QPVPPADPAGSGLQRAEEAPRRQLRVSQRTDGESRAHLGALLARYIQQARKAPSGRMSIVKNLQNLDPSHRISDRDYMGWMDFGRRSAEEYEYPS
# modifications: Cholecystokinin
# notes: a peptide found in the gastrointestinal tract and the central nervous system
# Assays:
# [1] = system: isolated guinea pig gallbladder; test: Isolated guinea pig gallbladder assay (contraction, % CCK-induced maximal response); conditions: for % contraction / % contraction at 30 µM / % contraction at 1 µM: Cavia porcellus; for % contraction at 30 µM: read-out: % Contraction (30 μM), expressed as % CCK-induced maximal response; for % contraction at 1 µM: read-out: % Contraction (1 μM), expressed as % CCK-induced maximal response
# Procedure: 3. GUINEA PIG GALL BLADDER ASSAY
# Gallbladders are removed from guinea pigs sacrificed by cervical dislocation. The isolated gallbladders are cleaned of adherent connective tissue and cut into two rings from each animal (2-6 mm in length). […] Tissues are connected via gold chains and stainless steel mounting wires to isometric force displacement transducers (Grass, Model FT03 D). Responses are then recorded on a polygraph (Grass, Model 7E).
# Rings are gradually stretched (over a 120 min. period) to a basal resting tension of 1 gm which is maintained throughout the experiment. During the basal tension adjustment period, the rings are exposed to acetylcholine (10^-6 M) four times to verify tissue contractility. The tissues are then exposed to a submaximal dose of sulfated CCK-8 (Sigma, 3×10^-9 M). After obtaining a stable response, the tissues are washed out 3 times rapidly and every 5 to 10 minutes for 1 hour to reestablish a stable baseline.
# As a final test, ACH (10 μM) is added to induce maximal contraction.
# rat gastric emptying = test: Rat gastric emptying assay (methyl cellulose/phenol red test meal); type: in vivo; conditions: vehicle 66
# Procedure: 7. RAT GASTRIC EMPTYING PROTOCOL
# Methyl Cellulose (MC) Test Meal
# 1. Disperse MC in water at 80° C. at a final concentration of 1.5% under continuous stirring. Cool to room temperature.
# 2. Add Phenol Red (50 mg/100) to solution.
# 3. Keep solution stirring during entire experiment.
# 1. Food deprive animals for 18 hours.
# 2. Inject test drug/prop. glycol or prop. glycol alone intraperitoneally.
# 3. After 5 minutes, gavage 1.5 mL of Pheno Red/MC solution
# 1. After 20 minutes, decapitate animal
# 2. Clamp stomach at the pylorus and cardia ends, and rinse in 0.9% NaCl.
# 3. Place stomach in 100 mL of 0.1N NaOH, cut into small pieces, and homogenize for 30 seconds.
# 4. Let settle at room temperature for 60 minutes.
# 5. In centrifuge tube, add 5 mL of supernatant and 0.5 mL of trichloroacetic acid (29% w/v), and centrifuge at 2,800 rpm for 20 minutes.
# 6. Decant supernatant, and add 4 mL of 0.5N NaOH and read absorbance at a wavelength of 560 nm.
# The standard stomach is determined from the phenol red recovered in stomachs of rats decapitated immediately after intragastric infusion of MC/phenol red.
# [2] = literature background; cited from earlier work
# [3] = intraperitoneally at 0.1 μmoles/kg
Molecule,"% contraction at 30 µM ([1]; Table 1, 30 μM) [%]","% contraction at 1 µM ([1]; Table 1, 1 μM) [%]",other results
"COc1ccc(N(C(=O)CN2C(=O)C(Cc3n[nH]c4ccccc34)C(=O)N(c3ccccc3)c3ccccc32)C(C)C)cc1 (stereo not drawn) [CCK-A agonist 1, 2[3(1H-Indazol-3-ylmethyl)-2,4-dioxo-5-phenyl-2,3,4,5-tetrahydro-benzo[b]1,4]diazepin1-ylN-isopropyl-N-(4-methoxy-phenyl) acetamide, reference compound]",,,"% contraction ([1]; Table 2, delivered at 3 μM): 87%; rat gastric emptying: % emptying (rat gastric emptying; [3]): 6%"
"COc1ccc(N(C(=O)CN2C(=O)C(Cc3n[nH]c4ccccc34)C(=O)N(c3ccccn3)c3ccccc32)C(C)C)cc1 (stereo not drawn) [CCK-A agonist 2, reference compound]",,,"% contraction ([1]; Table 2, delivered at 30 μM): 100%; rat gastric emptying: % emptying (rat gastric emptying; [3]): 2.5%"
"CC(C)N(C(=O)CN1C(=O)[C@H](NC(=O)Nc2cccc(C(=O)O)c2)N=C(c2ccccc2)c2ccccc21)c1ccccc1 [Example 13, (R)-3-{3-[1-(Isopropyl-phenyl-carbamoylmethyl)-2-oxo-5-phenyl-2,3-dihydro-1H-benzo[e][1,4]diazepin-3-yl]-ureido}-benzoic acid]",77,,
"CC(C)N(C(=O)CN1C(=O)C(NC(=O)c2cc3ccccc3[nH]2)N=C(c2ccccc2)c2ccccc21)c1ccccc1 (stereo not drawn) [Example 14, 1H-indolyl-2-carboxylic acid [1-(isopropyl-phenyl-carbamoylmethyl)-2-oxo-5-phenyl-2,3-dihydro-1H-benzo[e][1,4]diazepin-3-yl]-amide]",13,,
"CC(C)N(C(=O)CN1C(=O)C(NC(=O)c2cc3ccccc3n2CC(=O)O)N=C(c2ccccc2)c2ccccc21)c1ccccc1 (stereo not drawn) [Example 15, {2-[1-(Isopropyl-phenyl-carbamoylmethyl)-2-oxo-5-phenyl-2,3-dihydro-1H-benzo[e][1,4]diazepin-3-ylcarbamoyl]-indol-1-yl}-acetic acid]",52,,
"CC(C)N(C(=O)CN1C(=O)C(NC(=O)Nc2ccccc2)[N+]([O-])=C(c2ccccc2)c2ccccc21)c1ccccc1 (stereo not drawn) [Example 16, N-Isopropyl-2-[4-N-oxide-2-oxo-5-phenyl-3-(3-phenyl-ureido)-2,3-dihydro-benzo[e][1,4]diazepin-1-yl]-N-phenyl-acetamide]",67,,
"COc1ccc(N(C(=O)CN2C(=O)C(Cc3c[nH]c4ccccc34)N=C(c3ccccc3)c3ccccc32)C(C)C)cc1 (stereo not drawn) [Example 17, 3-{1-[Isopropyl-(4-methoxy-phenyl)-carbamoylmethyl]-2-oxo-5-phenyl-2,3-dihydro-1H-benzo[e][1,4]diazepin-3-ylmethyl}-indolyl]",,24,
"COc1ccc(N(C(=O)CN2C(=O)C(NC(=O)Nc3ccccc3)N=C(c3cccnc3)c3ccccc32)C(C)C)cc1 (stereo not drawn) [Example 18, N-Isopropyl-N-(4-methoxy-phenyl)-2-[2-oxo-3-(3-phenyl-ureido)-5-pyridin-3-yl-2,3-dihydro-benzo[e][1,4]diazepin-1-yl]-acetamide]",,75,
"CC(C)N(C(=O)CN1C(=O)C(NC(=O)Nc2ccccc2)n2cnnc2-c2ccccc21)c1ccccc1 (stereo not drawn) [Example 19, N-Isopropyl-N-phenyl-2-[5-oxo-4-(3-phenyl-ureido)-4,5-dihydro-1,2,3a,6-tetraaza-benzo[e]azulen-6-yl]-acetamide]",58,83,
"COc1ccc(N(C(=O)CN2C(=O)[C@@H](Cc3c[nH]c4ccccc34)NC(=O)c3ccccc32)C(C)C)cc1 [Example 20, (R)-2-[3-(1H-Indol-3-ylmethyl)-2,5-dioxo-2,3,4,5-tetrahydro-benzo[e][1,4]diazepin-1-yl]-N-isopropyl-N-(4-methyoxy-phenyl)-acetamide]",,31,
"COc1ccc(N(C(=O)CN2C(=O)[C@H](Cc3c[nH]c4ccccc34)NC(=O)c3ccccc32)C(C)C)cc1 [Example 21, (S)-2-[3-(1H-Indol-3-ylmethyl)-2,5-dioxo-2,3,4,5-tetrahydro-benzo[e][1,4]diazepin-1-yl]-N-isopropyl-N-(4-methyoxy-phenyl)-acetamide]",,54,
"COc1ccc(N(C(=O)CN2C(=O)[C@H](Cc3c[nH]c4ccccc34)n3cnnc3-c3ccccc32)C(C)C)cc1 [Example 22, S-2-[4-(1H-Indol-3-ylmethyl)-5-oxo-6,5-dihydro-1,2,3a,6-tetraaza-benzo[e]azulene-6-yl}-N-isopyropyl-N-(4-methoxy-phenyl)acetamide]",,36,
"COc1ccc(N(C(=O)CN2C(=O)[C@@H](Cc3c[nH]c4ccccc34)n3cnnc3-c3ccccc32)C(C)C)cc1 [Example 23, (R)-2-[4-(1H-Indol-3-ylmethyl)-5-oxo-6,5-dihydro-1,2,3a,6-tetraaza-benzo[e]azulene6-yl}-N-isopropyl-N-(4-methoxy-phenyl)-acetamide]",,36,
COc1ccc(N(C(=O)CN2C(=O)[C@@H](Cc3c[nH]c4ccccc34)NC(=O)c3c(CC(=O)O)cccc32)C(C)C)cc1 [Example 24],,,"% Contraction (1 μM), expressed as % CCK-induced maximal response ([1]; Table 1, 1 μM): 93%; % Contraction (30 μM), expressed as % CCK-induced maximal response ([1]; Table 1, 30 μM): 79%"
"CCK-8: CCK8 is the Cterminal octapeptide of CCK (DYMGWMDF; ends and bridges not checked; UniProt P06307 96-103, looked up) [reference compound]",,,"Isolated guinea pig gallbladder: % contraction ([1]; Table 2, CCK-8 delivered at 1 μM): 100%; rat gastric emptying: % emptying (rat gastric emptying; CCK-8 intraperitoneally at 30 nmoles/kg): 0%"
B1,,,inhibition of gastric emptying in humans [2]: inhibit gastric emptying in humans
